This passage reports inhibition of growth and pest or weed control results from patent publication US10130096B2, “Method for protecting useful plants or plant propagation material” (SYNGENTA PARTICIPATIONS AG, priority 2011, dated 2018).

For test [1], the system named is Mycosphaerella arachidis (Cercospora arachidicola). Briefly: Mycosphaerella arachidis liquid culture growth inhibition. The format is cell-based. The following applies: photometric, 4-5 days after application, read-out: control on Mycosphaerella arachidis. The method, then: (§1) Conidia of the fungus from cryogenic storage are directly mixed into nutrient broth (PDB potato dextrose broth). After placing a (DMSO) solution of test compound into a microtiter plate (96-well format), the nutrient broth containing the fungal spores is added.

In the next test the test system is Fusarium culmorum. Briefly: Fusarium culmorum liquid culture growth inhibition. The format is cell-based. The following applies: photometric, 3-4 days after application, read-out: control on Fusarium culmorum. How it is done: Conidia of the fungus from cryogenic storage are directly mixed into nutrient broth (PDB potato dextrose broth). After placing a (DMSO) solution of test compound into a microtiter plate (96-well format), the nutrient broth containing the fungal spores is added. The test plates are incubated at 24° C. and the inhibition of growth is determined photometrically 3-4 days after application.

Test [2] relates to Botryotinia fuckeliana (Botrytis cinerea). Nature of the test: Botryotinia fuckeliana liquid culture growth inhibition. In kind it is cell-based. The following applies: photometric, 3-4 days after application, read-out: control on Botryotinia fuckeliana. The method, then: Conidia of the fungus from cryogenic storage are directly mixed into nutrient broth (Vogels broth). After placing a (DMSO) solution of test compound into a microtiter plate (96-well format), the nutrient broth containing the fungal spores is added.

Test [3] relates to Pythium ultimum. Briefly: Example B-5: seed treatment against Pythium ultimum on cotton. The format is in vivo. The following applies: Globisporangium ultimum, rate of 200 g/100 kg seeds, infested soil, number of germinated, healthy plants. The method, then:
The trial is kept for 1 week in a growth room at 20° C. and darkness. After this period the trial is transferred to a greenhouse where a temperature of 21° C. and a 14 h light period is provided until the trial is finished. The following assessments are made: number of germinated, healthy plants. Each number is determined for 150 seeds per treatment (3 replicates a 50 seeds).

For test [4], the system named is Pythium ultimum. Briefly: Pythium ultimum liquid culture growth inhibition. In kind it is cell-based. The following applies: Globisporangium ultimum, photometric, 2-3 days after application, read-out: control on Pythium ultimum. How it is done: Mycelia fragments and oospores of a newly grown liquid culture of the fungus are directly mixed into nutrient broth (PDB potato dextrose broth). After placing a (DMSO) solution of test compound into a microtiter plate (96-well format), the nutrient broth containing the fungal mycelia/spore mixture is added.

Test [5] concerns Glomerella lagenarium (Colletotrichum lagenarium). Briefly: Glomerella lagenarium liquid culture growth inhibition. The format is cell-based. The following applies: Colletotrichum orbiculare, photometric, 3-4 days after application, read-out: control on Glomerella lagenarium. The method, then:
as §1

Test [6] deals with Monographella nivalis (Microdochium nivale). Briefly: Monographella nivalis liquid culture growth inhibition. In kind it is cell-based. The settings on record: photometric, 4-5 days after application, read-out: control on Monographella nivalis. How it is done: Conidia of the fungus from cryogenic storage are directly mixed into nutrient broth (PDB potato dextrose broth). After placing a (DMSO) solution of test compound into a microtiter plate (96-well format), the nutrient broth containing the fungal spores is added. The test plates are incubated at 24° C. and the inhibition of growth is determined photometrically 4-5 days after application.

The subject of test [7] is Pythium ultimum. Nature of the test: Pythium ultimum on Cotton/Pouch. The following applies: Globisporangium ultimum, 168 h, cotton, pouch, 7 days at 17° C. In kind it is in vivo. The text has this: A spore/mycelium suspension is pipetted into the pouch simultaneously.
A further test has as its system Alternaria solani. Nature of the test: Alternaria solani on tomato plants. The settings on record: 4-week old tomato plants cv. Roter Gnom, spray, inoculated two days after application. The format is in vivo. How it is done: 4-week old tomato plants cv. Roter Gnom are sprayed in a spray chamber with the formulated test compound diluted in water. The test plants are inoculated by spraying them with a spore suspension two days after application. The inoculated test plants are incubated at 22/18° C. (day/night) and 95% rh in a greenhouse and the percentage leaf area covered by disease is assessed when an appropriate level of disease appears on untreated check plants (5-7 days after application).

Test [8] has as its system Thanatephorus cucumeris (Rhizoctonia solani). Nature of the test: Thanatephorus cucumeris liquid culture growth inhibition. In kind it is cell-based. The following applies: photometric, 3-4 days after application, read-out: control on Thanatephorus cucumeris. The method, then:
Mycelia fragments of a newly grown liquid culture of the fungus are directly mixed into nutrient broth (PDB potato dextrose broth). After placing a (DMSO) solution of the test compounds into a microtiter plate (96-well format), the nutrient broth containing the fungal material is added. The test plates are incubated at 24° C. and the inhibition of growth is determined photometrically 3-4 days after application.

One may read the pest or weed control as the degree to which the test organism was suppressed or injured, in per cent. Lower therefore signals a weak effect. As to `OB1OCc2ccccc21` [Compound 11, 3H-Benzo[c][1,2]oxaborol-1-ol], the inhibition of growth at 200 ppm (in [1]; with Fusarium culmorum; in [2]; in the test on Pythium ultimum [4]; in [5]) was not below 80% each time. Besides, the pest or weed control at 200 g/100 kg seeds in the test on Pythium ultimum [3] was not below 50%.
Take `OB1OCc2cc(F)ccc21` [Compound 8, 5-Fluoro-3H-benzo[c][1,2]oxaborol-1-ol]: the inhibition of growth at 200 ppm (in test [6]; in test [1]; with Fusarium culmorum; in test [2]; in test [8]; in the test on Pythium ultimum [4]) was not below 80% in each case. Further, the inhibition of growth at 200 ppm in [5] is not below 80%. In addition, the pest or weed control at 20 ppm with Pythium ultimum [7] was not below 50%. Further, the pest or weed control at 200 g/100 kg seeds in the test with Pythium ultimum [3] was not below 50%. The pest or weed control at 60 ppm in the test on Alternaria solani was not below 60%.
Consider `CCC(CN)OB1OCc2cc(Cl)ccc21` (stereo not shown) [Compound 26, 2-(5-Chloro-3H-benzo[c][1,2]oxaborol-1-yloxy)-butylamine], for which the inhibition of growth at 200 ppm (in test [6]; in [1]; with Fusarium culmorum; in test [2]; in [8]; in the test with Pythium ultimum [4]) was not below 80% in each case. Also, the inhibition of growth at 200 ppm in [5] is not below 80%. In the test with Pythium ultimum [3], this molecule yielded a pest or weed control at 200 g/100 kg seeds not below 50%.
As to `CC(N)COB1OCc2cc(Cl)ccc21` (stereo not shown) [Compound 28, 2-(5-Chloro-3H-benzo[c][1,2]oxaborol-1-yloxy)-1-methyl-ethylamine], the inhibition of growth at 200 ppm (in test [6]; in [1]; in the test with Fusarium culmorum; in test [2]; in test [8]; in the test on Pythium ultimum [4]) was not below 80% each time. Moreover, the inhibition of growth at 200 ppm in test [5] was not below 80%. Also, the pest or weed control at 60 ppm in the test with Alternaria solani was not below 60%.
As to `CCC(N)COB1OCc2cc(F)ccc21` (stereo not shown) [Compound 30, 1-(5-Fluoro-3H-benzo[c][1,2]oxaborol-1-yloxymethyl)-propylamine], the inhibition of growth at 200 ppm (in test [6]; in test [1]; with Fusarium culmorum; in test [2]; in [8]; in the test on Pythium ultimum [4]) was not below 80% throughout. In test [5], the inhibition of growth at 200 ppm was not below 80%. The molecule further showed a pest or weed control at 200 g/100 kg seeds in the test on Pythium ultimum [3] not below 50%.
In the case of `OB1OCc2cc3ccccc3cc21` [Compound 15, 3H-2-Oxa-1-bora-cyclopenta[b]naphthalen-1-ol], the inhibition of growth at 200 ppm (in test [6]; in test [1]; in the test with Fusarium culmorum; in test [2]; in the test with Pythium ultimum [4]; in test [5]) was not below 80% throughout. Further, in the test on Alternaria solani, the pest or weed control at 60 ppm is not below 60%.
On to `NCC(=O)OB1OCc2cc(Cl)ccc21` [Compound 9, Amino-acetic acid 5-chloro-3H-benzo[c][1,2]oxaborol-1-yl ester], for which the inhibition of growth at 200 ppm (in test [6]; in test [1]; with Fusarium culmorum; in [2]; with Pythium ultimum [4]; in test [5]) was not below 80% each time. In addition, the pest or weed control at 20 ppm in the test with Pythium ultimum [7] is not below 50%.
For the molecule `NCCCCOB1OCc2cc(Cl)ccc21` [Compound 10, 4-(5-Chloro-3H-benzo[c][1,2]oxaborol-1-yloxy)-butylamine], the inhibition of growth at 200 ppm (in test [6]; in test [1]; in the test with Fusarium culmorum; in test [2]; in [8]; in the test with Pythium ultimum [4]) was not below 80% in each case. Further, in test [5], the inhibition of growth at 200 ppm was not below 80%. This molecule also returned a pest or weed control at 200 g/100 kg seeds in the test with Pythium ultimum [3] not below 50%.
Consider `NCCCOB1OCc2cc(F)ccc21` [Compound 12, 3-(5-Fluoro-3H-benzo[c][1,2]oxaborol-1-yloxy)-propylamine], for which the inhibition of growth at 200 ppm (in test [6]; in test [1]; in the test with Fusarium culmorum; in test [2]; in test [8]; with Pythium ultimum [4]) was not below 80% in each case. Moreover, the inhibition of growth at 200 ppm in test [5] was not below 80%. Also, in the test with Pythium ultimum [7], the pest or weed control at 20 ppm is not below 50%. The molecule further displayed a pest or weed control at 200 g/100 kg seeds in the test on Pythium ultimum [3] not below 50%.
As for `OB1OCc2cc(Cl)ccc21` [Compound 1, 5-Chloro-3H-benzo[c][1,2]oxaborol-1-ol], the inhibition of growth at 200 ppm (in test [6]; in test [1]; in the test with Fusarium culmorum; in test [2]; in [8]; with Pythium ultimum [4]) was not below 80% each time. Further, the inhibition of growth at 200 ppm in [5] was not below 80%. In the test on Pythium ultimum [7], this molecule registered a pest or weed control at 20 ppm not below 50%. Besides, in the test on Pythium ultimum [3], the pest or weed control at 200 g/100 kg seeds was not below 50%. Also, the pest or weed control at 60 ppm with Alternaria solani was not below 60%.
Consider `CCC(N)COB1OCc2cc(Cl)ccc21` (stereo not shown) [Compound 2, 1-(5-Chloro-3H-benzo[c][1,2]oxaborol-1-yloxymethyl)-propylamine], for which the inhibition of growth at 200 ppm (in test [6]; in test [1]; in the test on Fusarium culmorum; in [2]; in test [8]; with Pythium ultimum [4]) was not below 80% each time. Besides, the inhibition of growth at 200 ppm in test [5] is not below 80%. In addition, the pest or weed control at 20 ppm in the test on Pythium ultimum [7] is not below 50%. This molecule came in with a pest or weed control at 200 g/100 kg seeds in the test on Pythium ultimum [3] not below 50%. In addition, the pest or weed control at 60 ppm in the test with Alternaria solani was not below 60%.
Take `NCCCCOB1OCc2cc(F)ccc21` [Compound 13, 4-(5-Fluoro-3H-benzo[c][1,2]oxaborol-1-yloxy)-butylamine]: the inhibition of growth at 200 ppm (in test [6]; in test [1]; with Fusarium culmorum; in test [2]; in test [8]; in the test on Pythium ultimum [4]) was not below 80% each time. For the same molecule, the inhibition of growth at 200 ppm in test [5] was not below 80%. This molecule also showed a pest or weed control at 200 g/100 kg seeds in the test on Pythium ultimum [3] not below 50%.
With `CC(CN)OB1OCc2cc(Cl)ccc21` (stereo not shown) [Compound 27, 2-(5-Chloro-3H-benzo[c][1,2]oxaborol-1-yloxy)-propylamine], the inhibition of growth at 200 ppm (in [6]; in test [1]; in the test with Fusarium culmorum; in test [2]; in test [8]; in the test with Pythium ultimum [4]) was not below 80% in each case. For the same molecule, the inhibition of growth at 200 ppm in [5] is not below 80%. In the test on Alternaria solani, this molecule displayed a pest or weed control at 60 ppm not below 60%.
Turning to `CNCCOB1OCc2cc(Cl)ccc21` [Compound 4, [2-(5-Chloro-3H-benzo[c][1,2]oxaborol-1-yloxy)-ethyl]-methyl-amine], the inhibition of growth at 200 ppm (in [6]; in test [1]; with Fusarium culmorum; in test [2]; in test [8]; in the test with Pythium ultimum [4]) was not below 80% throughout. For the same molecule, in test [5], the inhibition of growth at 200 ppm is not below 80%. Also, in the test with Pythium ultimum [7], the pest or weed control at 20 ppm was not below 50%.
